{
  "source": "patent US20230414567A1",
  "about": "“METHODS OF TREATING CONDITIONS RELATED TO THE S1P1 RECEPTOR” (Arena Pharmaceuticals, Inc., priority 2020, published 2023)",
  "key": {"[1]": {"system": "patients with moderate to severe atopic dermatitis", "assay": "Phase 2 randomized, double-blind, placebo-controlled study: efficacy (EASI, vIGA, pruritus NRS, patient-reported outcomes)", "type": "in vivo, human", "conditions": "for reduction in EASI from baseline to week 12: 12 weeks (n=47); for delta versus placebo in vIGA 0 or 1 response at week 12: p<0.05", "description": "A Phase 2, multicenter, randomized, double-blind, placebo-controlled study was conducted to assess the safety and efficacy of etrasimod in patients with moderate to severe atopic dermatitis. The primary endpoint measured was percent change in Eczema Area and Severity Index (EAST) from baseline to week 12, followed by a 4-week follow-up observation period. Secondary endpoints include the proportion of participants achieving EASI-75, proportion of participants with a validated Investigator Global Assessment (vIGA) 0 to 1, and percent change in peak pruritis. The trial enrolled approximately 140 patients and was conducted in study sites across the United States, Canada and Australia. An open-label extension of the trial is ongoing. The study included multiple periods: (i) up to a 4-week screening period (to determine subject eligibility); (ii) a 12-week double-blind treatment period with a 4-week safety follow-up period; and (iii) a 52-week open-label extension period followed by a 4-week safety follow-up period. Subjects with chronic AD for at least one year (as defined by Hanifin and Rajka criteria (Hanifin 1980)) despite optimized skin care (e.g., use of emollients, avoidance of irritants) whose disease is not adequately controlled with topical therapies, or for whom those therapies are not advisable, were equally randomized (1:1:1 ratio) to receive etrasimod (1 or 2 mg) or placebo. Etrasimod 1 or 2 mg tablets or matching placebo tablets were taken orally once daily during the double-blind treatment period. Etrasimod 2 mg tablets are taken orally once daily during the open-label extension period. There is no reference therapy (no placebo) during the open-label extension period. Inclusion Criteria: Subjects must meet ALL of the following inclusion criteria to be eligible for enrollment into the study. • 1. Men or women between ≥18 and ≤70 years of age at the time of informed consent. • 2. Chronic AD, defined by Hanifin and Rajka criteria (Hanifin 1980), that has been present for at least one year prior to the screening visit. • 3. Eczema Area and Severity Index (EAST)≥12 at the screening visit and ≥16 at the baseline visit. • 4. vIGA score≥3 (on the 0 to 4 vIGA scale, in which 3=moderate and 4=severe) involvement at the screening and baseline visits. • 5. Body surface area (BSA)≥10% of AD involvement at the screening and baseline visits. • 6. Recent history (within 6 months prior to the screening visit) of inadequate response to treatment with topical medications, or when topical treatments are otherwise medically inadvisable (e.g., because of important side effects or safety risks), which can be documented by medical records or by the history provided to the investigator by the subject despite optimized skin care (.e., avoidance of irritants, use of emollients). • 7. Willing to apply a dose of topical emollient/moisturizer at least once daily for ≥1 week prior to the baseline visit and willing to continue daily application over the course of the study without change (i.e., type, frequency, application). • 8. Willing and able to comply with all clinic visits and study-related procedures and understand and complete study-related questionnaires. • 9. Provide signed informed consent prior to conducting any procedures. Efficacy was assessed by changes in AD severity using EASI, vIGA, SCORing Atopic Dermatitis (SCORAD), and BSA. Symptoms of itch were assessed using the pruritus numeric rating scale (NRS). Patient-reported outcomes will also be assessed using the Dermatology Life Quality Index (DLQI), Patient Oriented Eczema Measure (POEM), and Patient Global Assessment (PGA)."}, "[2]": {"system": "patients with moderate to severe atopic dermatitis", "assay": "Phase 2 atopic dermatitis study: adverse events and tolerability", "type": "in vivo, human"}, "heart rate": {"system": "heart rate", "assay": "Phase 2 atopic dermatitis study: heart rate effects after first dose", "type": "in vivo, human", "conditions": "for placebo corrected maximal mean heart rate decrease from baseline: 2 hours after first dose", "excerpt": "(§1) The study included multiple periods: (i) up to a 4-week screening period (to determine subject eligibility); (ii) a 12-week double-blind treatment period with a 4-week safety follow-up period; and (iii) a 52-week open-label extension period followed by a 4-week safety follow-up period. Subjects with chronic AD for at least one year (as defined by Hanifin and Rajka criteria (Hanifin 1980)) despite optimized skin care (e.g., use of emollients, avoidance of irritants) whose disease is not adequately controlled with topical therapies, or for whom those therapies are not advisable, were equally randomized (1:1:1 ratio) to receive etrasimod (1 or 2 mg) or placebo. Etrasimod 1 or 2 mg tablets or matching placebo tablets were taken orally once daily during the double-blind treatment period. Etrasimod 2 mg tablets are taken orally once daily during the open-label extension period. There is no reference therapy (no placebo) during the open-label extension period.\nThere was a decrease of 1.5 bpm in the 1 mg group and a decrease of 6.7 bpm in the 2 mg group. […] After the first dose, the heart rate differences across the 3 groups came together by week 1 and were similar from weeks 2-12. One participant in the 2 mg etrasimod group had transient 2nd degree AVB Type 1 which was self-limited, and asymptomatic. The participant went on to further dosing without any cardiac changes or symptoms."}, "lymphocyte count": {"system": "lymphocyte count", "assay": "Phase 2 atopic dermatitis study: absolute/peripheral lymphocyte count", "type": "in vivo, human", "excerpt": "as §1\nDuring the double-blind treatment period, etrasimod plasma concentrations and a complete blood count (CBC) including lymphocyte count were assessed on day 1 and before dosing at subsequent study visits. Study visits occurred at baseline, week 1, week 2, week 4, week 6, week 8, week 12, at the end of treatment, and at the week 16 follow-up visit. The absolute lymphocyte count (ALC) was included as part of the assessment."}, "UC patients": {"system": "UC patients", "conditions": "2 mg QD for 12 weeks; cited from earlier work"}, "healthy adult subjects": {"system": "healthy adult subjects", "conditions": "single doses up to 5 mg, repeated doses up to 4 mg QD; cited from earlier work"}},
  "data": [
    {"smiles": "O=C(O)C[C@H]1CCc2c1[nH]c1ccc(OCc3ccc(C4CCCC4)c(C(F)(F)F)c3)cc21", "note": "[etrasimod, (R)-2-(7-(4-cyclopentyl-3-(trifluoromethyl)benzyloxy)-1,2,3,4-tetrahydrocyclopenta[b]indol-3-yl)acetic acid]", "values": [
      {"measurement": "patients achieving EASI-75", "setting": "[1]; 1 mg once daily, week 12", "result": 27.7, "unit": "%"},
      {"measurement": "patients achieving vIGA of 0 or 1 and a reduction from baseline of >=2 points at week 12", "setting": "[1]; 1 mg once daily, week 12", "result": 14.9, "unit": "%"},
      {"measurement": "reduction in EASI from baseline to week 12", "setting": "[1]; 1 mg orally once daily", "result": 58.7, "unit": "%"},
      {"measurement": "proportion of patients with decrease in pruritus >=4 points at week 12", "setting": "[1]; 1 mg, week 12, p=0.61 vs placebo", "result": 32.5, "unit": "%"},
      {"measurement": "improvement in EASI from baseline to week 4", "setting": "[1]; 2 mg dose group, week 4", "result": "statistically significant improvement"},
      {"measurement": "improvement in pruritis at week 4", "setting": "[1]; 2 mg dose group, week 4", "result": "statistically significant improvement"},
      {"measurement": "proportion of patients who achieved EASI-75 at week 4", "setting": "[1]; 2 mg dose group, week 4", "result": "statistically significant improvement"},
      {"measurement": "delta versus placebo in vIGA 0 or 1 response at week 12", "setting": "[1]; 2 mg group vs placebo", "result": 16.8, "unit": "%"},
      {"measurement": "percent change in EASI over time versus placebo", "setting": "[1]; 2 mg group without interruptions, weeks 4 to 12", "result": "significant at 4 weeks"},
      {"measurement": "patients achieving EASI-75 at week 12", "setting": "[1]; 2 mg group without study interruptions", "result": 42.1, "unit": "%"},
      {"measurement": "patients achieving vIGA of 0 or 1 and reduction from baseline >=2 points at week 12", "setting": "[1]; 2 mg group without study interruptions (38 participants)", "result": 36.8, "unit": "%"},
      {"measurement": "delta versus placebo in vIGA 0 or 1 response at week 12", "setting": "[1]; 2 mg group without study interruptions vs placebo", "result": 23.8, "unit": "%"},
      {"measurement": "patients achieving EASI-75", "setting": "[1]; 2 mg once daily, week 12", "result": 38.3, "unit": "%"},
      {"measurement": "patients achieving vIGA of 0 or 1 and a reduction from baseline of >=2 points at week 12", "setting": "[1]; 2 mg once daily, week 12", "result": 29.8, "unit": "%"},
      {"measurement": "reduction in EASI from baseline to week 12", "setting": "[1]; 2 mg orally once daily", "result": 57.2, "unit": "%"},
      {"measurement": "treatment response after restart of treatment", "setting": "[1]; 2 mg patients with dose interruption, after restart", "result": "recaptured"},
      {"measurement": "EASI change from baseline in patients who ceased then reinitiated treatment", "setting": "[1]; 2 mg patients with dose interruption, to week 12", "result": "improved rapidly after resumption"},
      {"measurement": "patient-reported and clinician-assessed outcomes versus placebo", "setting": "[1]; 2 mg, over 12 weeks", "result": "improved patient-reported outcomes and clinician-assessed outcomes versus placebo"},
      {"measurement": "proportions of patients achieving vIGA score of 0 or 1, DLQI and POEM versus placebo", "setting": "[1]; 2 mg, week 12", "result": "significantly greater proportions"},
      {"measurement": "proportion of patients with decrease in pruritus >=4 points at week 12", "setting": "[1]; 2 mg, week 12, p=0.15 vs placebo", "result": 42.1, "unit": "%"},
      {"measurement": "pruritis NRC changes over time versus placebo", "setting": "[1]; etrasimod group without interruptions", "result": "statistically significant from weeks 2-8"},
      {"measurement": "tolerability", "setting": "[2]; 1 mg and 2 mg, 12-week double-blind period", "result": "well tolerated"},
      {"measurement": "cases of dyspnea", "setting": "[2]; 2 mg treatment group", "result": "one case"},
      {"measurement": "adverse events related to heart rate", "setting": "[2]; double-blind treatment period", "result": "no adverse events related to heart rate"},
      {"measurement": "cases of macular edema", "setting": "[2]; double-blind treatment period", "result": "no cases"},
      {"measurement": "conjunctivitis, acne, venous thromboembolic events, opportunistic or serious infections", "setting": "[2]; double-blind treatment period", "result": "no reports"},
      {"measurement": "blood pressure changes or symptoms associated with heart rate changes", "setting": "heart rate; 1 mg and 2 mg groups, after first dose", "result": "not associated with any blood pressure changes or symptoms"},
      {"measurement": "placebo corrected maximal mean heart rate decrease from baseline", "setting": "heart rate; 1 mg group", "result": 1.5, "unit": "bpm"},
      {"measurement": "placebo corrected maximal mean heart rate decrease from baseline", "setting": "heart rate; 2 mg group", "result": 6.7, "unit": "bpm"},
      {"measurement": "participants with transient 2nd degree AVB Type 1", "setting": "heart rate; 2 mg group, self-limited, asymptomatic", "result": "One"},
      {"measurement": "patients with ALC measurement of Grade 3 (between 0.2x10e9 and 0.5x10e9 cells/L)", "setting": "lymphocyte count; 2 mg group, between weeks 4 and 8", "result": "nine"},
      {"measurement": "maximal reduction in the peripheral lymphocyte count", "setting": "lymphocyte count; 2 mg group, week 2", "result": 43.6, "unit": "%"},
      {"measurement": "lymphocyte count after treatment withdrawal", "setting": "lymphocyte count; 2 mg patients with dose interruption, between weeks 4 and 8", "result": "rapid rebound in lymphocyte count"},
      {"measurement": "endoscopic and symptomatic improvements versus placebo", "setting": "UC patients", "result": "clinically meaningful and statistically significant endoscopic and symptomatic improvements"},
      {"measurement": "safety and tolerability in clinical trials", "setting": "healthy adult subjects", "result": "safe and well-tolerated"}
    ]}
  ]
}
